Assay results taken from ChEMBL document CHEMBL1201862, “PubChem BioAssay data set” (2004).
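96-well plates; 48 h exposure; 5 concentrations. Endpoints by linear interpolation between flanking doses. Not reached: highest tested concentration assigned. GI50 = concentration required for 50% inhibition of growth.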 Calls of active or inactive are those of the source. Cut-off read from the data, not from the text of the source: active = GI50 up to about 1.1 µM and inactive = higher.

Assays:
Experiment in all cases: NCI anticancer screen, dose series, 48 h
Malme-3M = system: Malme-3M
UACC-62 = system: UACC-62
U-251 = system: U-251
PC-3 = system: PC-3
A498 = system: A498
ACHN = system: ACHN
M14 = system: M14
LXFL 529 = system: LXFL 529
SK-OV-3 = system: SK-OV-3
HL-60 = system: HL-60
MDA-MB-231 = system: MDA-MB-231
SW-620 = system: SW-620
NCI-H23 = system: NCI-H23
SF-539 = system: SF-539
MDA-N = system: MDA-N
UACC-257 = system: UACC-257
MDA-MB-435 = system: MDA-MB-435
COLO 205 = system: COLO 205
HCT-15 = system: HCT-15
HCT-116 = system: HCT-116

Structure (SMILES): CC(C)OC(=O)Nc1c([N+](=O)[O-])cc(C(F)(F)F)cc1[N+](=O)[O-]
- GI50 (Malme-3M): > 100 µM (inactive)
- GI50 (UACC-62): > 100 µM (inactive)
- GI50 (U-251): 97.9 µM (inactive)
- GI50 (PC-3): > 100 µM (inactive)
- GI50 (A498): > 100 µM (inactive)
- GI50 (ACHN): > 100 µM (inactive)
- GI50 (M14): > 100 µM (inactive)
- GI50 (LXFL 529): > 100 µM (inactive)
- GI50 (SK-OV-3): 40.3 µM (inactive)
- GI50 (HL-60): > 100 µM (inactive)
- GI50 (MDA-MB-231): 59.4 µM (inactive)
- GI50 (SW-620): > 100 µM (inactive)
- GI50 (NCI-H23): 69.5 µM (inactive)
- GI50 (SF-539): 23.9 µM (inactive)
- GI50 (MDA-N): > 100 µM (inactive)
- GI50 (UACC-257): > 100 µM (inactive)
- GI50 (MDA-MB-435): > 100 µM (inactive)
- GI50 (COLO 205): > 100 µM (inactive)
- GI50 (HCT-15): > 100 µM
- GI50 (HCT-116): > 100 µM (inactive)
